Columns and labels:
[1] = Antagonist activity at peripheral muscarinic M3 receptor in guinea pig longitudinal ileum assessed as effect on arecaidin propargyl ester-induced contraction after 1 hr; format: functional, tissue-based, Cavia porcellus
[2] = target: T1, Muscarinic acetylcholine receptor M1 (Homo sapiens, UniProt P11229); assay: Displacement of [3H]N-methylscopolamine chloride from human cloned muscarinic M1 receptor expressed in CHOK1 cells; format: cell-based, CHO-K1
T1 sequence (P11229 whole entry): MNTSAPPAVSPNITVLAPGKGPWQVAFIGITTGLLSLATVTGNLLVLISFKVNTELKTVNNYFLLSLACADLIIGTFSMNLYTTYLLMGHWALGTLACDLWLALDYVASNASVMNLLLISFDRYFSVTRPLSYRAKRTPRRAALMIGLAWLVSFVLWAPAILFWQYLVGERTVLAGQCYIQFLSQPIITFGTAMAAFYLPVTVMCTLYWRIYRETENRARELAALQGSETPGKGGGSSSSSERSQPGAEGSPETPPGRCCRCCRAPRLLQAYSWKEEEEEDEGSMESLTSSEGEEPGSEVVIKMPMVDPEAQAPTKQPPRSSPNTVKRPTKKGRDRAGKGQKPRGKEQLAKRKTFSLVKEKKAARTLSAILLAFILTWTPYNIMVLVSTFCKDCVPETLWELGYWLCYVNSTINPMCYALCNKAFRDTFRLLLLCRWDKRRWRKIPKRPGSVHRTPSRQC

[3] = Antagonist activity at peripheral muscarinic M4 receptor in rabbit vas deferens assessed as effect on McN-A-343-induced contraction after 1 hr; format: functional, tissue-based; conditions: Oryctolagus cuniculus, read-out: pA2 (converted)
[4] = target: T2, Muscarinic acetylcholine receptor M2 (Homo sapiens, UniProt P08172); assay: Displacement of [3H]N-methylscopolamine chloride from human cloned muscarinic M2 receptor expressed in CHOK1 cells; format: cell-based, CHO-K1
T2 sequence (P08172 whole entry): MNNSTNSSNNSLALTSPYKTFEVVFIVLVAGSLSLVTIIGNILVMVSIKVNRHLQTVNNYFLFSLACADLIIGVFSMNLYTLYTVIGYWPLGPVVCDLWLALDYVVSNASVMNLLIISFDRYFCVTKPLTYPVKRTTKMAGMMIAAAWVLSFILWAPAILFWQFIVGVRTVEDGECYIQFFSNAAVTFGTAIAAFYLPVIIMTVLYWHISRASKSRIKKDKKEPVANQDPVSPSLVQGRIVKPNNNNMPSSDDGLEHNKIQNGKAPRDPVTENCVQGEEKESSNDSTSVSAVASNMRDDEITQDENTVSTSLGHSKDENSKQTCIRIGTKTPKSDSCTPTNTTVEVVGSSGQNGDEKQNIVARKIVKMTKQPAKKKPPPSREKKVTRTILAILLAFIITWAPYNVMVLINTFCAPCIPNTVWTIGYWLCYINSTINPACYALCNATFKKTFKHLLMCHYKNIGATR

[5] = Antagonist activity at peripheral muscarinic M2 receptor in guinea pig left atrium assessed as effect on arecaidin propargyl ester-induced contraction after 1 hr; format: functional, tissue-based; conditions: Cavia porcellus, Cardiac atrium, read-out: pA2 (converted)
[6] = target: Muscarinic acetylcholine receptor M3 (Homo sapiens, UniProt P20309); assay: Displacement of [3H]N-methylscopolamine chloride from human cloned muscarinic M3 receptor expressed in CHOK1 cells; format: cell-based, CHO-K1
[7] = target: T3, Muscarinic acetylcholine receptor M4 (Homo sapiens, UniProt P08173); assay: Displacement of [3H]N-methylscopolamine chloride from human cloned muscarinic M4 receptor expressed in CHOK1 cells; format: cell-based, CHO-K1
T3 sequence (P08173 whole entry): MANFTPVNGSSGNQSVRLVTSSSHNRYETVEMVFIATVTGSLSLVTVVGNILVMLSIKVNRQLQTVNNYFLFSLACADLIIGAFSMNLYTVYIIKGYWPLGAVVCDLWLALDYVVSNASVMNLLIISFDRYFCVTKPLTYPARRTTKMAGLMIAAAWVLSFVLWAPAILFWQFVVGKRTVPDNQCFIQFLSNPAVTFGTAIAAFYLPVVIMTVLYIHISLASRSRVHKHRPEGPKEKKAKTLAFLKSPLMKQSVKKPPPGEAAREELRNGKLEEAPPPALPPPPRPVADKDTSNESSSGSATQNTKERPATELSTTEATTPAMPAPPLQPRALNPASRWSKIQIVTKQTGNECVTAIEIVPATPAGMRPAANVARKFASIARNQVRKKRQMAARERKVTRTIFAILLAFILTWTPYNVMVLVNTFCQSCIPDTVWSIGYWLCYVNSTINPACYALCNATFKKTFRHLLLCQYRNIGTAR

Chain of Muscarinic acetylcholine receptor M3 (P20309 whole entry): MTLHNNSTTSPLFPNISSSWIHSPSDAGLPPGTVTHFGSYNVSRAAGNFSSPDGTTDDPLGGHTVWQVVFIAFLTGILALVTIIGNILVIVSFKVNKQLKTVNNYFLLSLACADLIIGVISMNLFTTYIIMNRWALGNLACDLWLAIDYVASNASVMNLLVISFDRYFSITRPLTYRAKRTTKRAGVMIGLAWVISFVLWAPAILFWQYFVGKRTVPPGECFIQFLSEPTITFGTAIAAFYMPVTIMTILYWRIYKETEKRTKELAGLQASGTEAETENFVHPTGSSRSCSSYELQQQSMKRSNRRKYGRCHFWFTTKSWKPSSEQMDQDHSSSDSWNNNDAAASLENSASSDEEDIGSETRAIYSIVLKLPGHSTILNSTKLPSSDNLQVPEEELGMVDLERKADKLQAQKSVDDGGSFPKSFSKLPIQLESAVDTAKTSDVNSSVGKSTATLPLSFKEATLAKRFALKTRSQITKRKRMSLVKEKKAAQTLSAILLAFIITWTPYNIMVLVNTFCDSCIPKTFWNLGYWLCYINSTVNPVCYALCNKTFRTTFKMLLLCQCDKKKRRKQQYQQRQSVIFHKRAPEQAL

| Ki [2] [nM] | Ki [4] [nM] | Ki [6] [µM] | Ki [7] [nM] | Structure (SMILES) | pA2 [1] | Kb [3] [nM] | Kb [5] [nM] |
| --- | --- | --- | --- | --- | --- | --- | --- |
|  |  |  |  | CN(C)[C@@H]1CCCC[C@H]1N(C)CC(=O)N1c2ccccc2C(=O)Nc2cccnc21.O=C(O)C(=O)O.O=C(O)C(=O)O | 7.76 |  |  |
|  |  |  |  | CN(C)[C@H]1CCCC[C@@H]1N(C)CC(=O)N1c2ccccc2C(=O)Nc2cccnc21.O=C(O)C(=O)O.O=C(O)C(=O)O | 7.58 |  |  |
|  |  |  |  | CN(C)[C@@H]1CCCC[C@@H]1N(C)CC(=O)N1c2ccccc2C(=O)Nc2cccnc21.O=C(O)C(=O)O.O=C(O)C(=O)O | 7.57 |  |  |
|  |  |  |  | CN(C)[C@H]1CCCC[C@H]1N(C)CC(=O)N1c2ccccc2C(=O)Nc2cccnc21.O=C(O)C(=O)O.O=C(O)C(=O)O | 7.64 |  |  |
| 2290 | 1000 | > 10 | 6610 | CN1CCN(CC(=O)N2c3ccccc3C(=O)Nc3cccnc32)[C@@H]2CCCC[C@H]21 (relative stereo) | 6.47 | 79.4 | 87.1 |
| 1450 | 646 | > 10 | 2450 | CN1CCN(CC(=O)N2c3ccccc3C(=O)Nc3cccnc32)[C@@H]2CCCC[C@@H]21 (relative stereo) | 6.01 | 60.3 | 741 |
|  |  |  |  | CN1CCN(CC(=O)N2c3ccccc3C(=O)Nc3cccnc32)CC1 [PIRENZEPINE] | 6.88 | 8.91 | 339 |

| Structure (SMILES) | Ki [2] [nM] | Ki [4] [nM] | Ki [6] [µM] | Ki [7] [nM] | pA2 [1] | Kb [3] [nM] | Kb [5] [nM] |
| --- | --- | --- | --- | --- | --- | --- | --- |
| CN(CCCCCCCCN(C)CCCCCCN(CC(=O)N1c2ccccc2C(=O)Nc2cccnc21)CC(=O)N1c2ccccc2C(=O)Nc2cccnc21)CCCCCCNCC(=O)N1c2ccccc2C(=O)Nc2cccnc21 [TRIPITRAMINE] | 3.55 |  | 0.148 | 11.5 | 6.55 | 11.2 |  |

Source: ChEMBL document CHEMBL1155803 (Bioorg Med Chem, 2008)
